In patent publication US20230089073A1 (Carmot Therapeutics, Inc., priority 2021, published 2023) one finds EC50 data, which are given here for 26 compounds.

The structures appear in SMILES notation.

In the experiment the target is T1, human GLP-1 receptor (Homo sapiens, UniProt P43220).
T1 construct: expressed in transfected cells
T1 sequence (P43220 24-463): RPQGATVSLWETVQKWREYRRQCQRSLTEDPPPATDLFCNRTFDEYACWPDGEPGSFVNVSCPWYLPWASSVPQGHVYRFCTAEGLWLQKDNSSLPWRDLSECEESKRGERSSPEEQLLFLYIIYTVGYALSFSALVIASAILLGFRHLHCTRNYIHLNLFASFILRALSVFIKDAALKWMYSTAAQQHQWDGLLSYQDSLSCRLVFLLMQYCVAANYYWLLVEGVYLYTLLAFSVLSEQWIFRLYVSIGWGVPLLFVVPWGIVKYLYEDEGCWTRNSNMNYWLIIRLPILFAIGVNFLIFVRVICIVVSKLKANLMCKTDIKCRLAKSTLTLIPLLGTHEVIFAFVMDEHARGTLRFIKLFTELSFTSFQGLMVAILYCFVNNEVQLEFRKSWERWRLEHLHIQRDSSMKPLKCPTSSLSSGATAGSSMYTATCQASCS
The experiment can be described thus: GLP-1R cAMP Assay. The following applies: cAMP accumulation in CHO cells stably overexpressing the human GLP-1 receptor; 30 min treatment; HitHunter cAMP kit; read-out: EC50. Format: cell-based. In a few lines:
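CHO cells stably overexpressing human GLP-1R, 10,000 cells/well, treated with compound in 20-point dose response in triplicate for 30 min. cAMP accumulation read by enzyme-complementation luminescence after lysis and overnight incubation; dose-response curves fitted.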
For orientation: Cyclic AMP is a second messenger, typically raised through Gs and lowered through Gi signalling.
The EC50 is the concentration at which the effect is half-maximal. With `CCn1cncc1Cn1c(CN2CCN(C(=O)c3cccc(Oc4ccc(C)cc4Cl)c3)CC2)nc2ccc(C(=O)O)cc21` [Example 57, 2-((4-(3-(2-Chloro-4-methylphenoxy)benzoyl)piperazin-1-yl)methyl)-1-((1-ethyl-1H-imidazol-5-yl)methyl)-1H-benzo[d]imidazole-6-carboxylic acid], the EC50 is 50 to 500 nM.
With `O=C(O)c1ccc2nc(CN3CCN(C(=O)c4ccc(Cc5ccc(Cl)cc5Cl)o4)CC3)n(C[C@@H]3CCO3)c2c1` [Example 59, (S)-2-((4-(5-(2,4-Dichlorobenzyl)furan-2-carbonyl)piperazin-1-yl)methyl)-1-(oxetan-2-ylmethyl)-1H-benzo[d]imidazole-6-carboxylic acid], the EC50 lay in the range of 50 to 500 nM.
In the case of `O=C(O)c1ccc2nc(CN3CCC(Cc4cnc(COc5ccc(Cl)cc5Cl)o4)CC3)n(C[C@@H]3CCO3)c2c1` [Example 60, (S)-2-((4-((2-((2,4-Dichlorophenoxy)methyl)oxazol-5-yl)methyl)piperidin-1-yl)methyl)-1-(oxetan-2-ylmethyl)-1H-benzo[d]imidazole-6-carboxylic acid] it was below 50 nM; in that of `CN(c1cc(C(=O)N2CCN(Cc3nc4ccc(C(=O)O)cc4n3C[C@@H]3CCO3)CC2)ncn1)C1CCCCC1` [Example 61, (S)-2-((4-(6-(Cyclohexyl(methyl)amino)pyrimidine-4-carbonyl)piperazin-1-yl)methyl)-1-(oxetan-2-ylmethyl)-1H-benzo[d]imidazole-6-carboxylic acid], above 500 nM; in that of `CN(c1ccccc1)c1cc(C(=O)N2CCN(Cc3nc4ccc(C(=O)O)cc4n3C[C@@H]3CCO3)CC2)ncn1` [Example 62, (S)-2-((4-(6-(Methyl(phenyl)amino)pyrimidine-4-carbonyl)piperazin-1-yl)methyl)-1-(oxetan-2-ylmethyl)-1H-benzo[d]imidazole-6-carboxylic acid], above 500 nM.
Then `O=C(O)c1ccc2nc(CN3CCC(Cc4ccc(COc5ccc(Cl)cc5Cl)o4)CC3)n(C[C@@H]3CCO3)c2c1` [Example 72, (S)-2-((4-((5-((2,4-Dichlorophenoxy)methyl)furan-2-yl)methyl)piperidin-1-yl)methyl)-1-(oxetan-2-ylmethyl)-1H-benzo[d]imidazole-6-carboxylic acid], with below 50 nM; and `O=C(O)c1ccc2nc(CN3CCN(C(=O)c4ccc(OCc5ccc(Cl)cc5Cl)o4)CC3)n(C[C@@H]3CCO3)c2c1` [Example 73, (S)-2-((4-(5-((2,4-Dichlorobenzyl)oxy)furan-2-carbonyl)piperazin-1-yl)methyl)-1-(oxetan-2-ylmethyl)-1H-benzo[d]imidazole-6-carboxylic acid], with above 500 nM.
Turning to `O=C(O)c1ccc2nc(CN3CCN(Cc4ccc(OCc5ccc(Cl)cc5Cl)o4)CC3)n(C[C@@H]3CCO3)c2c1` [Example 74, (S)-2-((4-((5-((2,4-Dichlorobenzyl)oxy)furan-2-yl)methyl)piperazin-1-yl)methyl)-1-(oxetan-2-ylmethyl)-1H-benzo[d]imidazole-6-carboxylic acid], the EC50 is above 500 nM.
Take `Cc1ccc(N(C)Cc2cccc(C(=O)N3CCN(Cc4nc5ccc(C(=O)O)cc5n4C[C@@H]4CCO4)CC3)c2)c(Cl)c1` [Example 78, (S)-2-((4-(3-(((2-Chloro-4-methylphenyl)(methyl)amino)methyl)benzoyl)piperazin-1-yl)methyl)-1-(oxetan-2-ylmethyl)-1H-benzo[d]imidazole-6-carboxylic acid]: the EC50 is above 500 nM.
Then `N#Cc1ccc(COc2cccc(C3CCN(C(=O)c4ccc(-c5nnn[nH]5)nc4)CC3)n2)c(F)c1` [Example 83, 4-(((6-(1-(6-(1H-Tetrazol-5-yl)nicotinoyl)piperidin-4-yl)pyridin-2-yl)oxy)methyl)-3-fluorobenzonitrile], with below 50 nM.
Then `Cc1cc(C(C)C)ccc1Oc1cccc(C(=O)N2CCN(Cc3nc4ccc(C(=O)O)cc4n3C[C@@H]3CCO3)CC2)c1` [Example 89, (S)-2-((4-(3-(4-Isopropyl-2-methylphenoxy)benzoyl)piperazin-1-yl)methyl)-1-(oxetan-2-ylmethyl)-1H-benzo[d]imidazole-6-carboxylic acid], with 50 to 500 nM; and `O=C(O)c1ccc2nc(CN3CCc4[nH]c5c(OCc6ccc(Cl)cc6F)cccc5c4C3)n(C[C@@H]3CCO3)c2c1` [Example 90, (S)-2-((6-((4-Chloro-2-fluorobenzyl)oxy)-1,3,4,5-tetrahydro-2H-pyrido[4,3-b]indol-2-yl)methyl)-1-(oxetan-2-ylmethyl)-1H-benzo[d]imidazole-6-carboxylic acid], with above 500 nM.
Consider `N#Cc1ccc(COc2cccc(C3CCN(C(=O)c4ccc(C(=O)O)nc4)CC3)n2)c(F)c1` [Example 91, 5-(4-(6-((4-Cyano-2-fluorobenzyl)oxy)pyridin-2-yl)piperidine-1-carbonyl)picolinic acid], for which the EC50 was above 500 nM.
In the case of `N#Cc1ccc(COc2cccc(N3CCN(C(=O)c4ccc(-c5nnn[nH]5)nc4)CC3)n2)c(F)c1` [Example 92, 4-(((6-(4-(6-(1H-Tetrazol-5-yl)nicotinoyl)piperazin-1-yl)pyridin-2-yl)oxy)methyl)-3-fluorobenzonitrile] it was 50 to 500 nM.
Then `Cc1ccc(N(C)c2cc(C(=O)N3CCN(Cc4nc5ccc(C(=O)O)cc5n4C[C@@H]4CCO4)CC3)ccc2F)c(Cl)c1` [Example 95, (S)-2-((4-(3-((2-Chloro-4-methylphenyl)(methyl)amino)-4-fluorobenzoyl)piperazin-1-yl)methyl)-1-(oxetan-2-ylmethyl)-1H-benzo[d]imidazole-6-carboxylic acid], with 50 to 500 nM; and `Cc1ccc(N(C)c2cc(C(=O)N3CCN(Cc4nc5ccc(C(=O)O)cc5n4C[C@@H]4CCO4)CC3)ccn2)c(Cl)c1` [Example 99, (S)-2-((4-(2-((2-Chloro-4-methylphenyl)(methyl)amino)isonicotinoyl)piperazin-1-yl)methyl)-1-(oxetan-2-ylmethyl)-1H-benzo[d]imidazole-6-carboxylic acid], with 50 to 500 nM.
As for `O=C(O)c1ccc2nc(CN3CCN(C(=O)c4cnc(COc5ccc(Cl)cc5Cl)o4)CC3)n(C[C@@H]3CCO3)c2c1` [Example 102, (S)-2-((4-(2-((2,4-Dichlorophenoxy)methyl)oxazole-5-carbonyl)piperazin-1-yl)methyl)-1-(oxetan-2-ylmethyl)-1H-benzo[d]imidazole-6-carboxylic acid], the EC50 fell in the range of 50 to 500 nM.
On to `Cc1ccc(N(C)c2cccc(C3(N4CCN(Cc5nc6ccc(C(=O)O)cc6n5C[C@@H]5CCO5)CC4)CC3)c2)c(Cl)c1` [Example 105, (S)-2-((4-(1-(3-((2-chloro-4-methylphenyl)(methyl)amino)phenyl)cyclopropyl)piperazin-1-yl)methyl)-1-(oxetan-2-ylmethyl)-1H-benzo[d]imidazole-6-carboxylic acid], for which the EC50 is above 500 nM.
Then `Cc1ccc(N(C)c2cccc(C=C3CCN(Cc4nc5ccc(C(=O)O)cc5n4C[C@@H]4CCO4)CC3)c2)c(Cl)c1` [Example 106, (S)-2-((4-(3-((2-chloro-4-methylphenyl)(methyl)amino)benzylidene)piperidin-1-yl)methyl)-1-(oxetan-2-ylmethyl)-1H-benzo[d]imidazole-6-carboxylic acid], with 50 to 500 nM; and `Clc1ccc(COc2cccc(C3=CCN(Cc4ccc(-c5nn[nH]n5)nc4)CC3)n2)c(Cl)c1` [Example 110, 1′-((6-(2H-Tetrazol-5-yl)pyridin-3-yl)methyl)-6-((2,4-dichlorobenzyl)oxy)-1′,2′,3′,6′-tetrahydro-2,4′-bipyridine], with 50 to 500 nM.
Regarding `Cc1ccc(N(C)c2cccc(OC3CCN(Cc4nc5ccc(C(=O)O)cc5n4C[C@@H]4CCO4)CC3)c2)c(Cl)c1` [Example 111, (S)-2-((4-(3-((2-Chloro-4-methylphenyl)(methyl)amino)phenoxy)piperidin-1-yl)methyl)-1-(oxetan-2-ylmethyl)-1H-benzo[d]imidazole-6-carboxylic acid], the EC50 fell in the range of 50 to 500 nM.
On to `Cc1ccc(C(C)c2cccc(C(=O)N3CCN(Cc4nc5ccc(C(=O)O)cc5n4C[C@@H]4CCO4)CC3)c2)c(Cl)c1` (stereo partly drawn) [Example 112, 2-((4-(3-(1-(2-Chloro-4-methylphenyl)ethyl)benzoyl)piperazin-1-yl)methyl)-1-(((S)-oxetan-2-yl)methyl)-1H-benzo[d]imidazole-6-carboxylic acid], for which the EC50 fell in the range of 50 to 500 nM.
Then `Cc1ccc(OCc2cccc(CC3CCN(Cc4nc5ccc(C(=O)O)cc5n4C[C@@H]4CCO4)CC3)n2)c(C#N)c1` [Example 114, (S)-2-((4-((6-((2-Cyano-4-methylphenoxy)methyl)pyridin-2-yl)methyl)piperidin-1-yl)methyl)-1-(oxetan-2-ylmethyl)-1H-benzo[d]imidazole-6-carboxylic acid], with below 50 nM; and `Cc1cc(C2CC2)ccc1N(C)c1cccc(C(=O)N2CCN(Cc3nc4ccc(C(=O)O)cc4n3C[C@@H]3CCO3)CC2)c1` [Example 115, (S)-2-((4-(3-((4-Cyclopropyl-2-methylphenyl)(methyl)amino)benzoyl)piperazin-1-yl)methyl)-1-(oxetan-2-ylmethyl)-1H-benzo[d]imidazole-6-carboxylic acid], with below 50 nM.
`Cc1ccc(N(C)c2cccc(CC3CCN(Cc4nc5ccc(C(=O)O)cc5n4C[C@@H]4CCO4)CC3)c2)c(Cl)c1` [Example 116, (S)-2-((4-(3-((2-Chloro-4-methylphenyl)(methyl)amino)benzyl)piperidin-1-yl)methyl)-1-(oxetan-2-ylmethyl)-1H-benzo[d]imidazole-6-carboxylic acid]: the EC50 is below 50 nM.
Then `O=C(O)c1ccc2nc(CN3CCc4c([nH]c5c(OCc6ccc(Cl)cc6F)cccc45)C3)n(C[C@@H]3CCO3)c2c1` [Example 121, (S)-2-((8-((4-Chloro-2-fluorobenzyl)oxy)-1,3,4,9-tetrahydro-2H-pyrido[3,4-b]indol-2-yl)methyl)-1-(oxetan-2-ylmethyl)-1H-benzo[d]imidazole-6-carboxylic acid], with above 500 nM.
